{
  "source": "patent US20250057791A1",
  "about": "“PROTECTION AGAINST ARTHROPOD PARASITES WITH PURINERGIC RECEPTOR (OPR) ANTAGONISTS” (priority 2021, published 2025)",
  "key": {"Haematobia irritans": {"tested_on": "Haematobia irritans", "assay": "Membrane feeding assay, horn fly Haematobia irritans", "format": "in vivo", "settings": "for effect on feeding on solutions containing ATP, in words: doses as in Table 10", "description": "(§1) Flies of both species were transferred 30 min before feeding experiments to feeding cages as used for mosquitoes at 24° C., 80% RH in an environmental cabinet. Teneral tsetse were fed at 2 to 4 days old during the photophase with between 7 and 13 flies per feeding cage, covered with a black cloth. Horn flies were tested at 1 and 2 days old in the photophase with between 6 and 21 flies per cage. Both fly species were fed using small Hemotek feeding reservoirs (29 mm diameter, 1 ml) equipped with a membrane as for mosquitoes. Horn flies were fed for 15 min with feeding reservoirs placed on the cage. For tsetse, cages were closed with black mosquito netting at the bottom to allow flies to feed through the membrane placed under the cage. Feeding time (1.5 to 6 min) for tsetse was adjusted as a function of age to achieve at least 30% feeding on the positive control included in each feeding experiment. The positive control for both fly species contained 150 mM NaCl, 8.9 mM NaHCO3 with 100 μM ATP added, hereafter termed fly feeding solution (FFS). The pH of the FFS was adjusted as for ticks. The effect of TMP on feeding by G. pallidipes was also tested at 16 μg TMP/cm^2 dissolved in 140 μl hexane and applied homogeneously to the membrane surface using a micropipette. Hexane was used to treat the membrane with TMP to avoid the test compound being dispersed by fly wing-fanning. Flies of both species were activated just prior to feeding on a treatment by exhalation into the cage. Tsetse that had fed were identified with swollen abdomens and counted at the end of a feeding experiment. Since it was difficult to ascertain by eye whether a horn fly had fed on a treatment, 10 μl/ml of blue food colorant (No. 4866908, Trawosa AG, St. Gallen, Switzerland) was added. This facilitated the detection of ingested liquid when the abdomen of flies, killed by freezing, was squashed onto filter paper. Only experiments in which the feeding rate by flies was >30% on the positive control were included in analyses.\n(§2) Uptake of TFS containing PR antagonists, converted to mg/h for hard ticks and weight gains in mg/25 min for soft ticks, was compared to TFS uptake in the corresponding positive controls. […] For tsetse and horn flies the percentage flies that fed per antagonist treatment served as the criterion for inhibition of feeding. As horn fly sexes emerged within 24 h, both sexes were assumed to show the same degree of appetence. In tsetse, males emerged first so a gender-related appetence could not be excluded. No sex-related feeding differences in feeding were found for testse (GLM, P>0.05) so data for the sexes were pooled. Comparisons of percentage fed flies were made using a Bayesian GLM—the most appropriate model considering the zero-inflated distributions shown by the data sets. […] P-values were corrected using Holm's FWEC in multiple comparisons of data for each tick and fly species."}, "Glossina pallidipes": {"tested_on": "Glossina pallidipes", "assay": "Membrane feeding assay, tsetse fly Glossina pallidipes", "format": "in vivo", "settings": "for effect on feeding, compound in solution containing ATP, in words: doses as in Table 10", "description": "as §1, §2"}, "Ornithodorus moubata": {"tested_on": "Ornithodorus moubata", "assay": "Silicone membrane feeding of N3, N4 nymphs, Ornithodorus moubata", "format": "in vivo", "settings": "for effect on feeding, compound in solution containing ATP, in words: doses as in Table 9", "description": "O. moubata nymphs were fed for 25 min through a membrane (50-75 μm thick) as for hard ticks in glass feeding unit on TFS containing 1000 μM ATP as positive control in each feeding experiment. PR antagonists were added to the TFS as for hard ticks. One compound, TMP was applied onto the membrane in aqueous solution (8 μg TMP in 70 μl) in small drops using a micropipette. Individual nymphs were marked on the dorsum with nail varnish in distinguishable colours and weighed before and after the experiment.\nas §2"}, "A. gambiae": {"tested_on": "A. gambiae", "assay": "Membrane feeding assay, A. gambiae", "format": "in vivo, Anopheles gambiae", "settings": "for effect on feeding on solution containing ATP, in words: 20 μM ATP, CPT at 10 μM; for ID95 in μM (±s.e.m.): feeding on 20 μM ATP in the feeding solution", "description": "Experiments with A. gambiae and A. stephensi were made in a climate chamber at 28° C. and 80% RH during the last 6 hours of scotophase. As a sugar meal can interfere with the blood meal by reducing the number of females that feed, the sucrose solution supplied in rearing cages to mosquitoes employed for feeding experiments was reduced to 5%. […] The 5% sucrose solution was presented to mosquitoes from emergence on four 1 cm diam. cotton dental rolls (Hartmann A G, Neuhausen, Switzerland) inserted in 10 ml upturned glass vials placed in holes at each corner of the rearing cage ceiling. Cotton rolls were turned daily in vials and renewed every two days. Mosquitoes were not fed blood and were deprived of sucrose 17 to 20 hours before experiments. Thirty min before a feeding experiment, between 10-25, 6-day-old females that responded to activation by human breath were removed with a mouth aspirator from the rearing cage wall and placed in polystyrol cylinders with the floor cut out (10 cm dm×15 cm high; Semadeni, Ostermundigen, Switzerland) that served as feeding cages. Each cage was covered with mosquito netting at one end and a soft polyurethane lid at the other.\nMosquitoes were fed for 30 min using a feeding system (Hemotek®, Hemotek Ltd, Blackburn, UK) consisting of 3.5 ml stainless steel reservoirs 37 mm in diameter covered with a 60-90 μm thick silicone-impregnated membrane (Kröber and Guerin, 2007 in “Feeding assays for hard ticks”, Trends in parasitology 23, 445-449; doi 10.1016/j.pt.2007.07.010). Feeding reservoirs reached a temperature of 37° C. within 10 min and were placed on the netting of feeding cages. Mosquitoes were activated using a 200 ms pulse of pure CO2 (volume 6.25 ml) from a pressurised cylinder (Carbagas, Switzerland) using a solenoid valve that caused the CO2 level in the feeding cage to rise to at least 1,500 ppm. Between 3 and 4 sets of 10 feeding cages held in a custom-built Ertacetal® POM frame were tested per day, depending of the number of female mosquitoes available from the colony.\nAll compounds were tested in a mosquito feeding solution (FS) consisting of 25 mM dextrose, 25 mM NaCl buffered with 8.93 mM NaHCO3 adjusted to pH 7.4. Feeding responses of A. gambiae and A. stephensi to ATP as a function of dose were tested with between 7 to 10 feeding cages per dose. Each feeding experiment with an antagonist systematically included a treatment containing the FS as negative control along with a treatment containing the FS with […] added as positive control for A. gambiae and with […] added as positive control for A. stephensi. These positive and negative controls permitted to monitor any effect of experimental day on feeding responses as a function of dose for antagonists that were recorded over several days. […] Four to 10 cages each with 10 to 29 mosquitoes were tested per antagonist dose. […] The number of feeding cages used to test other compounds and their mixtures as feeding stimulants or as feeding inhibitors is listed on Table 6. The percentage of fed mosquitoes was estimated by visual inspection of abdominal distention that is indicative of engorgement.\nPairwise comparisons of A. gambiae electrophysiological (EP) responses to ATP and adenosine alone and combined with a given dose of PR antagonist, EP responses to ATP alone and combined with a given dose of a metal modulator, and EP responses to ATP prior to and after exposure of a sensillum to a given dose of a PR antagonist were made with a one-tailed Wilcoxon signed-rank test for data showing a non-normal distribution, with a paired Student's t-test for normally distributed data showing homogeneous variance and with a Welch's t-test for normally distributed data showing non-homogeneous variance. […]"}, "[1]": {"settings": "TFS + 100 μM, N3, N4, silicone membrane"}},
  "note": "Values joined by “and” are separate entries in the source; they are usually repeats but may differ in a detail not shown here. Equal values may be shown once.",
  "data": [
    {"compound": "Cc1nc(C)c(C)nc1C", "note": "[TMP, 2,3,5,6-tetramethylpyrazine]", "values": [
      {"measurement": "% Fed, Median", "setting": "Haematobia irritans; FFS + 50 μM", "result": 50, "unit": "%"},
      {"measurement": "% Fed, Median", "setting": "Haematobia irritans; FFS + 100 μM", "result": 37.5, "unit": "%"},
      {"measurement": "% Fed, Median", "setting": "Haematobia irritans; FFS + 500 μM", "result": 0, "unit": "%"},
      {"measurement": "effect on feeding on solutions containing ATP, in words", "setting": "Haematobia irritans", "result": "inhibited feeding"},
      {"measurement": "% Fed, Median", "setting": "Glossina pallidipes; FFS + 16 μg/cm^2 on membrane", "result": 40, "unit": "%"},
      {"measurement": "% Fed, Median", "setting": "Glossina pallidipes; FFS + 150 μM", "result": 66.7, "unit": "%"},
      {"measurement": "effect on feeding, compound applied onto the feeding membrane, in words", "setting": "Glossina pallidipes; dose as in Table 10", "result": "significantly inhibited feeding"},
      {"measurement": "effect on feeding, compound in solution containing ATP, in words", "setting": "Glossina pallidipes", "result": "failed to inhibit feeding"},
      {"measurement": "weight gain, Median (mg)", "setting": "Ornithodorus moubata; 8 μg/cm^2 on membrane over TFS, N3, N4", "result": 0, "unit": "mg/25 min"},
      {"measurement": "weight gain, Median (mg)", "setting": "Ornithodorus moubata; [1]", "result": 0.1, "unit": "mg/25 min"},
      {"measurement": "effect on feeding, compound applied onto the feeding membrane, in words", "setting": "Ornithodorus moubata; dose as in Table 9", "result": "significantly inhibited feeding"},
      {"measurement": "effect on feeding, compound in solution containing ATP, in words", "setting": "Ornithodorus moubata", "result": "failed to inhibit feeding"},
      {"measurement": "% Engorged mosquitoes", "setting": "A. gambiae; 7.5 μM TMP + 20 μM ATP + 200 μM Adenosine", "result": "36.7 ± 6.0", "unit": "%"},
      {"measurement": "effect on feeding on solution containing ATP, in words", "setting": "A. gambiae", "result": "inhibited feeding"},
      {"measurement": "% fed mosquitoes (mean ± s.e.m.), ATP + antagonist", "setting": "A. gambiae; antagonist 10 nM + 20 μM ATP", "result": 50.47, "unit": "%"},
      {"measurement": "ID95 in μM (±s.e.m.)", "setting": "A. gambiae", "result": 1.28, "unit": "µM"}
    ]},
    {"compound": "Cc1ccc(C(=O)Nc2ccc(S(=O)(=O)O)c3cc(S(=O)(=O)O)cc(S(=O)(=O)O)c23)cc1NC(=O)c1cccc(NC(=O)Nc2cccc(C(=O)Nc3cc(C(=O)Nc4ccc(S(=O)(=O)O)c5cc(S(=O)(=O)O)cc(S(=O)(=O)O)c45)ccc3C)c2)c1", "note": "[Suramin]", "values": [
      {"measurement": "% Fed, Median", "setting": "Haematobia irritans; FFS + 50 μM", "result": 61.5, "unit": "%"},
      {"measurement": "% Fed, Median", "setting": "Haematobia irritans; FFS + 100 μM", "result": 46.2, "unit": "%"},
      {"measurement": "% Fed, Median", "setting": "Glossina pallidipes; FFS + 50 μM", "result": 45.5, "unit": "%"},
      {"measurement": "weight gain, Median (mg)", "setting": "Ornithodorus moubata; TFS + 500 μM, N3, N4, silicone membrane", "result": 0, "unit": "mg/25 min"},
      {"measurement": "% fed mosquitoes (mean ± s.e.m.), ATP + antagonist", "setting": "A. gambiae; antagonist 1 μM + 20 μM ATP", "result": 34.86, "unit": "%"},
      {"measurement": "ID95 in μM (±s.e.m.)", "setting": "A. gambiae", "result": 1.36, "unit": "µM"}
    ]},
    {"compound": "Nc1ncnc2c1ncn2[C@@H]1O[C@H](COP(=O)(O)OP(=O)(O)OP(=O)(O)O)[C@@H](O)[C@H]1O", "note": "[ATP, Adenosine 5′-triphosphate]", "values": [
      {"measurement": "% fed mosquitoes (mean ± s.e.m.), ATP [20 μM]", "setting": "A. gambiae; 20 μM ATP alone, positive control of the antagonist", "result": "66.12% and 65.96% and 64.49% and 69.12% and 69.68% and 64.2% and 70.2% and 67.6%"},
      {"measurement": "% Engorged mosquitoes", "setting": "A. gambiae; 20 μM in feeding solution", "result": "67.5 ± 2.1", "unit": "%"},
      {"measurement": "% feeding at the ED95", "setting": "A. gambiae; 22.5 μM ATP", "result": 68.15, "unit": "%"},
      {"measurement": "% mosquitoes fed at the asymptote", "setting": "A. gambiae; 45 μM ATP", "result": 70.25, "unit": "%"},
      {"measurement": "asymptote dose of feeding response", "setting": "A. gambiae; dose dependent feeding", "result": 45, "unit": "µM"},
      {"measurement": "ED95, feeding stimulant", "setting": "A. gambiae; dose dependent feeding on feeding solution", "result": 22.5, "unit": "µM"}
    ]},
    {"compound": "O=C(O)c1cc(C(=O)O)c(C(=O)N(Cc2cccc(Oc3ccccc3)c2)[C@H]2CCCc3ccccc32)cc1C(=O)O", "note": "[A-317491, 5-[(3-phenoxyphenyl)methyl-[(1S)-1,2,3,4-tetrahydronaphthalen-1-yl]carbamoyl]benzene-1,2,4-tricarboxylic acid]", "values": [
      {"measurement": "% Fed, Median", "setting": "Haematobia irritans; FFS + 10 μM", "result": 58.3, "unit": "%"},
      {"measurement": "% Fed, Median", "setting": "Haematobia irritans; FFS + 100 μM", "result": 41.5, "unit": "%"},
      {"measurement": "effect on feeding on solutions containing ATP, in words", "setting": "Haematobia irritans", "result": "inhibited feeding"},
      {"measurement": "% Fed, Median", "setting": "Glossina pallidipes; FFS + 1 μM", "result": 22.5, "unit": "%"},
      {"measurement": "effect on feeding, compound in solution containing ATP, in words", "setting": "Glossina pallidipes", "result": "inhibited feeding"},
      {"measurement": "weight gain, Median (mg)", "setting": "Ornithodorus moubata; TFS + 1 μM, N3, N4, silicone membrane", "result": 0.1, "unit": "mg/25 min"},
      {"measurement": "weight gain, Median (mg)", "setting": "Ornithodorus moubata; [1]", "result": 0, "unit": "mg/25 min"},
      {"measurement": "effect on feeding, compound in solution containing ATP, in words", "setting": "Ornithodorus moubata", "result": "inhibited feeding"},
      {"measurement": "effect on feeding on solution containing ATP, in words", "setting": "A. gambiae", "result": "inhibited feeding"},
      {"measurement": "% fed mosquitoes (mean ± s.e.m.), ATP + antagonist", "setting": "A. gambiae; antagonist 1 nM + 20 μM ATP", "result": 43.71, "unit": "%"}
    ]}
  ]
}
